One data set deals with T1, human PDE4B1 (Homo sapiens, UniProt Q07343).
T1 construct: host or cells: Sf9 cells
The data set is described as follows: cAMP HTRF assay to determine the activity of hPDE4B1. The note with it: inhibition of PDE4B at a test concentration of 1 μM. It counts as biochemical. A digest of the protocol: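 Human recombinant PDE4B1 from Sf9 cells (4.8 U) in Tris-HCl, MgCl2, DTT, Tween 20 buffer at pH 7.8 with 40 nM cAMP (final), 30 min at room temperature. Reaction stopped with 1 mM IBMX; remaining cAMP detected by HTRF (665/620 nm ratio). IC50 from eight-concentration curves.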
Background: TR-FRET usually uses a lanthanide donor and a delayed reading to cut background.

T1 sequence (Q07343 whole entry): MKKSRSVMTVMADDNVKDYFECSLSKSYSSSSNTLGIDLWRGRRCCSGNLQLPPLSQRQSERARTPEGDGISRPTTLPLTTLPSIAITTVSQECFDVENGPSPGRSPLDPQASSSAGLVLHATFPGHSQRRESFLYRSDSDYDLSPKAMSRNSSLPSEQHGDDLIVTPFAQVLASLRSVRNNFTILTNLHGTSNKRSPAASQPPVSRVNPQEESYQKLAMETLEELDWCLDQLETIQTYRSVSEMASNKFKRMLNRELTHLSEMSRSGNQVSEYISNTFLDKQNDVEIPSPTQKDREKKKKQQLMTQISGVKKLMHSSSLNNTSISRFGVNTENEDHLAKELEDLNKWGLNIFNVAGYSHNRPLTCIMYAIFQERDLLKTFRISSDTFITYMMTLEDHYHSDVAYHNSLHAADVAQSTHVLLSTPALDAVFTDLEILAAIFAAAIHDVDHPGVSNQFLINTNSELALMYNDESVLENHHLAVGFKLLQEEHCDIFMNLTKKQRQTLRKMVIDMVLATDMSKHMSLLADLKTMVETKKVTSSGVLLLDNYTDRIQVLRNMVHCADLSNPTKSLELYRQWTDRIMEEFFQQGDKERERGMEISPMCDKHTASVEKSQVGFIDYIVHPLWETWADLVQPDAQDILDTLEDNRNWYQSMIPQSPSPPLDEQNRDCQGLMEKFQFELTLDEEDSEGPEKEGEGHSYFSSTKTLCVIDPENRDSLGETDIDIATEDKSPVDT

A word on the melting point: it is the temperature, or range, at which the solid turns liquid. For orientation: inhibition means the change of the read-out against control, counted positive when it falls. Regarding `COc1ccnc(-c2cnc(-n3cc([S+](C)[O-])c4ccc(C(=O)N5CCOCC5)cc43)nc2)c1` (stereo not drawn) [Example 141, (1-(5-(4-Methoxypyridin-2-yl)pyrimidin-2-yl)-3-(methylsulfinyl)-1H-indol-6-yl)(morpholino)methanone], the melting point lay in the range of 216 to 220 °C. The inhibition at 1 µM at human PDE4B1 worked out at 115%.
The corresponding values for `C[S+]([O-])c1cn(-c2ncc(-c3ccnc(O)c3)cn2)c2cc(C(=O)N3CCOCC3)ccc12` (stereo not drawn) [Example 143, (1-(5-(2-Hydroxypyridin-4-yl)pyrimidin-2-yl)-3-(methylsulfinyl)-1H-indol-6-yl)(morpholino)methanone] are 262 to 265 °C and 65%.
As to `C[S+]([O-])c1cn(-c2ncc(-c3cccnn3)cn2)c2cc(C(=O)N3CCOCC3)ccc12` (stereo not drawn) [Example 144, (3-(Methylsulfinyl)-1-(5-(pyridazin-3-yl)pyrimidin-2-yl)-1H-indol-6-yl)(morpholino)methanone], the melting point is 261 to 265 °C. The inhibition at 1 µM at human PDE4B1 amounted to 47%.
In turn, `C[S+]([O-])c1cn(-c2ncc(-c3cscn3)cn2)c2cc(C(=O)N3CCOCC3)ccc12` (stereo not drawn) [Example 145, (3-(Methylsulfinyl)-1-(5-(thiazol-4-yl)pyrimidin-2-yl)-1H-indol-6-yl)(morpholino)methanone] came in with a melting point of 254 to 257 °C. In addition, the inhibition at 1 µM at human PDE4B1 came out at 83%.
The corresponding values for `C[S+]([O-])c1cn(-c2ncc(-c3cc(N)ccc3F)cn2)c2cc(C(=O)N3CCOCC3)ccc12` (stereo not drawn) [Example 146, (1-(5-(5-Amino-2-fluorophenyl)pyrimidin-2-yl)-3-(methylsulfinyl)-1H-indol-6-yl)(morpholino)methanone] are 188 to 192 °C and 118%.
The corresponding values for `C[S+]([O-])c1cn(-c2ncc(-c3cc(O)ccn3)cn2)c2cc(C(=O)N3CCOCC3)ccc12` (stereo not drawn) [Example 147, (1-(5-(4-Hydroxypyridin-2-yl)pyrimidin-2-yl)-3-(methylsulfinyl)-1H-indol-6-yl)(morpholino)methanone] are 272 to 276 °C and 67%.
Taken in the same sequence, the figures for `C[S+]([O-])c1cn(-c2ncc(-c3cccc(O)c3)cn2)c2cc(C(=O)N3CCOCC3)ccc12` (stereo not drawn) [Example 149, (1-(5-(3-Hydroxyphenyl)pyrimidin-2-yl)-3-(methylsulfinyl)-1H-indol-6-yl)(morpholino)methanone] were 249 to 253 °C and 87%.
On to `C[S+]([O-])c1cn(-c2ncc(-c3ccncc3F)cn2)c2cc(C(=O)N3CCOCC3)ccc12` (stereo not drawn) [Example 150, (1-(5-(3-Fluoropyridin-4-yl)pyrimidin-2-yl)-3-(methylsulfinyl)-1H-indol-6-yl)(morpholino)methanone], for which the melting point is 241 to 244 °C. For the same compound, the inhibition at 1 µM against human PDE4B1 came to 49%.
The corresponding values for `Cc1cccc(-c2cnc(-n3cc(S(C)(=O)=O)c4ccc(C(=O)N5CCNC(=O)C5)cc43)nc2)c1` [Example 151, 4-(3-(Methylsulfonyl)-1-(5-(m-tolyl)pyrimidin-2-yl)-1H-indole-6-carbonyl)piperazin-2-one] are 283 to 287 °C and 91%.
Taken in the same sequence, the figures for `COc1ccc(F)c(-c2cnc(-n3cc(S(C)(=O)=O)c4ccc(C(=O)N5CCNC(=O)C5)cc43)nc2)c1` [Example 152, 4-(1-(5-(2-Fluoro-5-methoxyphenyl)pyrimidin-2-yl)-3-(methylsulfonyl)-1H-indole-6-carbonyl)piperazin-2-one] were 293 to 295 °C and 90%.
The corresponding values for `COc1cccc(-c2cnc(-n3cc(S(C)(=O)=O)c4ccc(C(=O)N5CCNC(=O)C5)cc43)nc2)c1` [Example 153, 4-(1-(5-(3-Methoxyphenyl)pyrimidin-2-yl)-3-(methylsulfonyl)-1H-indole-6-carbonyl)piperazin-2-one] are 270 to 273 °C and 76%.
For the compound `CO[C@H]1CCN(C(=O)c2ccc3c([S+](C)[O-])cn(-c4ncc(-c5ccccc5F)cn4)c3c2)C1` (stereo partly drawn) [Example 172, (1-(5-(2-Fluorophenyl)pyrimidin-2-yl)-3-(methylsulfinyl)-1H-indol-6-yl)((S)-3-methoxypyrrolidin-1-yl)methanone], the melting point lay in the range of 164 to 166 °C. Further, at human PDE4B1, the inhibition at 1 µM was 46%.
Taken in the same sequence, the figures for `CC(C)(O)c1cn(-c2ncc(-c3ccccc3F)cn2)c2cc(C(=O)N3CCOCC3)ccc12` [Example 184, (1-(5-(2-Fluorophenyl)pyrimidin-2-yl)-3-(2-hydroxypropan-2-yl)-1H-indol-6-yl)(morpholino)methanone] were 116 to 119 °C and 86%.
On to `Cc1cc(-c2cnc(-n3cc([S+](C)[O-])c4ccc(C(=O)N5CCOCC5)cc43)nc2)ccn1` (stereo not drawn) [Example 186, (1-(5-(2-Methylpyridin-4-yl)pyrimidin-2-yl)-3-(methylsulfinyl)-1H-indol-6-yl)(morpholino)methanone], for which the melting point fell in the range of 230 to 232 °C. The inhibition at 1 µM on human PDE4B1 was 74%.
The corresponding values for `C[S+]([O-])c1cn(-c2ncc(-c3ccnc(F)c3)cn2)c2cc(C(=O)N3CCOCC3)ccc12` (stereo not drawn) [Example 187, (1-(5-(2-Fluoropyridin-4-yl)pyrimidin-2-yl)-3-(methylsulfinyl)-1H-indol-6-yl)(morpholino)methanone] are 285 to 288 °C and 56%.
`C[S+]([O-])c1cn(-c2ncc(-c3cccc(CO)c3)cn2)c2cc(C(=O)N3CCOCC3)ccc12` (stereo not drawn) [Example 188, (1-(5-(3-(Hydroxymethyl)phenyl)pyrimidin-2-yl)-3-(methylsulfinyl)-1H-indol-6-yl)(morpholino)methanone] registered a melting point of 193 to 196 °C. In addition, the inhibition at 1 µM against human PDE4B1 is 104%.
On to `CCc1cccc(-c2cnc(-n3cc([S+](C)[O-])c4ccc(C(=O)N5CCOCC5)cc43)nc2)c1` (stereo not drawn) [Example 189, (1-(5-(3-Ethylphenyl)pyrimidin-2-yl)-3-(methylsulfinyl)-1H-indol-6-yl)(morpholino)methanone], for which the melting point is 162 to 165 °C. Also, on human PDE4B1, the inhibition at 1 µM was found to be 109%.
The corresponding values for `COC(=O)c1ccc(-c2cnc(-n3cc([S+](C)[O-])c4ccc(C(=O)N5CCOCC5)cc43)nc2)cc1` (stereo not drawn) [Example 190, Methyl 4-(2-(3-(methylsulfinyl)-6-(morpholine-4-carbonyl)-1H-indol-1-yl)pyrimidin-5-yl)benzoate] are 256 to 258 °C and 90%.
The corresponding values for `C[S+]([O-])c1cn(-c2ncc(-c3ccc(C(=O)O)cc3)cn2)c2cc(C(=O)N3CCOCC3)ccc12` (stereo not drawn) [Example 191, 4-(2-(3-(Methylsulfinyl)-6-(morpholine-4-carbonyl)-1H-indol-1-yl)pyrimidin-5-yl)benzoic acid] are 219 to 223 °C and 85%.
The corresponding values for `COC(=O)c1cccc(-c2cnc(-n3cc([S+](C)[O-])c4ccc(C(=O)N5CCOCC5)cc43)nc2)c1` (stereo not drawn) [Example 192, Methyl 3-(2-(3-(methylsulfinyl)-6-(morpholine-4-carbonyl)-1H-indol-1-yl)pyrimidin-5-yl)benzoate] are 217 to 220 °C and 112%.
Consider `C[S+]([O-])c1cn(-c2ncc(-c3cccc(C(=O)O)c3)cn2)c2cc(C(=O)N3CCOCC3)ccc12` (stereo not drawn) [Example 193, 3-(2-(3-(Methylsulfinyl)-6-(morpholine-4-carbonyl)-1H-indol-1-yl)pyrimidin-5-yl)benzoic acid], for which the melting point fell in the range of 230 to 235 °C. Moreover, the inhibition at 1 µM against human PDE4B1 was determined as 91%.
As for `C[S+]([O-])c1cn(-c2ncc(-c3cccc(Cl)c3)cn2)c2cc(C(=O)N3CCOCC3)ccc12` (stereo not drawn) [Example 194, (1-(5-(3-Chlorophenyl)pyrimidin-2-yl)-3-(methylsulfinyl)-1H-indol-6-yl)(morpholino)methanone], the melting point was in the range of 211 to 213 °C. On human PDE4B1, the inhibition at 1 µM was found to be 92%.
Taken in the same sequence, the figures for `Cc1ccc(F)c(-c2cnc(-n3cc([S+](C)[O-])c4ccc(C(=O)N5CCOCC5)cc43)nc2)c1` (stereo not drawn) [Example 198] were 120 to 123 °C and 114%.
Taken in the same sequence, the figures for `C[S+]([O-])c1cn(-c2ncc(-c3ccc(C(N)=O)cn3)cn2)c2cc(C(=O)N3CCOCC3)ccc12` (stereo not drawn) [Example 199, 6-(2-(3-(Methylsulfinyl)-6-(morpholine-4-carbonyl)-1H-indol-1-yl)pyrimidin-5-yl)nicotinamide] were 288 to 290 °C and 99%.
Taken in the same sequence, the figures for `C[S+]([O-])c1cn(-c2ncc(-c3ccc(F)cn3)cn2)c2cc(C(=O)N3CCOCC3)ccc12` (stereo not drawn) [Example 200, (1-(5-(5-Fluoropyridin-2-yl)pyrimidin-2-yl)-3-(methylsulfinyl)-1H-indol-6-yl)(morpholino)methanone] were 244 to 248 °C and 87%.
The compound `C[S+]([O-])c1cn(-c2ncc(-c3ncccc3F)cn2)c2cc(C(=O)N3CCOCC3)ccc12` (stereo not drawn) [Example 201, (1-(5-(3-Fluoropyridin-2-yl)pyrimidin-2-yl)-3-(methylsulfinyl)-1H-indol-6-yl)(morpholino)methanone] showed a melting point of 222 to 225 °C. Also, the inhibition at 1 µM against human PDE4B1 came out at 81%.
Take `C[S+]([O-])c1cn(-c2ncc(-c3cc(C(N)=O)ccn3)cn2)c2cc(C(=O)N3CCOCC3)ccc12` (stereo not drawn) [Example 202, 2-(2-(3-(Methylsulfinyl)-6-(morpholine-4-carbonyl)-1H-indol-1-yl)pyrimidin-5-yl)isonicotinamide]: the melting point fell in the range of 303 to 306 °C. At human PDE4B1, the inhibition at 1 µM is 94%.

(Values after patent US9315490B2, “2,5-substituted pyrimidines” (Grünenthal GmbH, priority 2014, dated 2016).)
